Measured values: ChEMBL document CHEMBL1151947, “Synthesis, potency, and in vivo evaluation of 2-piperazin-1-ylquinoline analogues as dual serotonin reuptake inhibitors and serotonin 5-HT1A receptor antagonists” (J Med Chem, 2009)

Columns and labels:
[1] = Tmax in rat at 10 mg/kg, po; assay type: ADME, organism-based; parameters: dose 10 mg/kg, route oral; settings: in vivo
[2] = Oral bioavailability in rat at 10 mg/kg; assay type: ADME, organism-based; settings: in vivo
[3] = target: T1, 5-hydroxytryptamine receptor 1A (Homo sapiens, UniProt P08908)
T1 sequence (P08908 whole entry): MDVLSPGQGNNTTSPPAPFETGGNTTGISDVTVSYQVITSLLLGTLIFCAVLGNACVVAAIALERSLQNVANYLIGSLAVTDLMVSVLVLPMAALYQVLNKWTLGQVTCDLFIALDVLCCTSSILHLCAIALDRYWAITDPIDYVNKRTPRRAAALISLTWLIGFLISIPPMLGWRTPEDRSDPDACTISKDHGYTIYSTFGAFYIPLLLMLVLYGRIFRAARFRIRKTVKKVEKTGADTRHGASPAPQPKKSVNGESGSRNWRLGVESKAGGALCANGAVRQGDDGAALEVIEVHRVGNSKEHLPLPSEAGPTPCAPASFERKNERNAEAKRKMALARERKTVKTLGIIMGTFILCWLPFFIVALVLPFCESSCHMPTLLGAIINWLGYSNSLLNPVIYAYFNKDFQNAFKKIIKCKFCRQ
Description: Antagonist activity at human 5HT1A receptor expressed in CHO cells assessed as stimulation of [35S]GTPgammaS binding

Rattus norvegicus [4] = test: Antidepressant like activity in sc dosed rat resident-intruder model assessed as effect on total behavior score administered 30 mins prior to test; assay type: functional; settings: read-out: ID50 (the source's name)
[5] = target: T2, Adrenergic receptor alpha-1 (Rattus norvegicus, UniProt P15823+P23944+P43140); test: Displacement of [3H]prazosin from alpha1 adrenergic receptor in rat cortical membranes; assay type: cell membranes, Membrane
T2 sequence (P15823 whole entry): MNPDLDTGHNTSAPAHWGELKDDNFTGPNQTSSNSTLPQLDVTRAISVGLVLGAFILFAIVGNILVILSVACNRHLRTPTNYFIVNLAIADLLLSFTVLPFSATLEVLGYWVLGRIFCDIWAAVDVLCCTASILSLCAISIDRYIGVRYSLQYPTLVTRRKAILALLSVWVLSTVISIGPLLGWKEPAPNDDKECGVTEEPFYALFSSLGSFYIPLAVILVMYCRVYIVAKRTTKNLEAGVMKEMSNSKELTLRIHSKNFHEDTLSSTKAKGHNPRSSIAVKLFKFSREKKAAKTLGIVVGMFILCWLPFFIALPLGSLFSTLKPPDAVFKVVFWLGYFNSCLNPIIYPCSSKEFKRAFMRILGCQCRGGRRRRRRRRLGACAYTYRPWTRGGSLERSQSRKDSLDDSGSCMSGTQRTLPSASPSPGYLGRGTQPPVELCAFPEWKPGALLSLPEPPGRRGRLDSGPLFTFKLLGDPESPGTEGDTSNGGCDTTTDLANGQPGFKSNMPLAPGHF
T2 sequence (P23944 whole entry): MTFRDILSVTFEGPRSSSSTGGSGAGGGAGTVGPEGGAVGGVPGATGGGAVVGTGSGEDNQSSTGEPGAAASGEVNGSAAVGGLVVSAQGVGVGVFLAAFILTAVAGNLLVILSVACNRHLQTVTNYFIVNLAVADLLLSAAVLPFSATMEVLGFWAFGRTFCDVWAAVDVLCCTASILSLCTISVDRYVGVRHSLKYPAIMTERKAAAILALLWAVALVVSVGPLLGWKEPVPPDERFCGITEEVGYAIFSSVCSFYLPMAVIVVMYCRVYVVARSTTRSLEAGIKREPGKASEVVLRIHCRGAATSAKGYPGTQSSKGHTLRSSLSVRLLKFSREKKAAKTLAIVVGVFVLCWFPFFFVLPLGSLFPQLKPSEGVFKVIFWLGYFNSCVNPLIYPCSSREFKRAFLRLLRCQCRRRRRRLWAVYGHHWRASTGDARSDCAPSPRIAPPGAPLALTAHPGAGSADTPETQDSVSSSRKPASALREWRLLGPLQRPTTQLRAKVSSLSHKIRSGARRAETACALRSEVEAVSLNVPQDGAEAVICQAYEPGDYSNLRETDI
T2 sequence (P43140 whole entry): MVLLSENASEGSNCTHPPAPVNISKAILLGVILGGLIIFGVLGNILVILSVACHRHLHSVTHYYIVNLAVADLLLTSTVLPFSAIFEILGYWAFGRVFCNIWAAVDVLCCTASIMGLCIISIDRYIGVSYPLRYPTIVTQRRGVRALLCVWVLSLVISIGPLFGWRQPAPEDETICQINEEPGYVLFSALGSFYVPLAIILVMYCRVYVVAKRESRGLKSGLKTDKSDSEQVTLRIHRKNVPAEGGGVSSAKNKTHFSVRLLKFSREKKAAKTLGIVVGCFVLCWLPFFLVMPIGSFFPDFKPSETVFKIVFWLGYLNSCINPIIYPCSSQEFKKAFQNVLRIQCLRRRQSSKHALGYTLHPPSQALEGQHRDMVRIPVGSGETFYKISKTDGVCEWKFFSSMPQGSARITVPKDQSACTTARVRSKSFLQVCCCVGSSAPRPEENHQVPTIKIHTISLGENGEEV

Rattus norvegicus [6] = test: Antidepressant like activity in sc dosed rat resident-intruder model assessed as reduction of aggressive behavior level administered 30 mins prior to test; assay type: functional

- Tmax [1]: 1 h
- bioavailability [2]: 36%
- IC50 [3]: 102 nM
- Ki [5]: 1110 nM
Compound: Cc1ccc2c3c(ccc2n1)OC[C@H](CN1CCN(c2ccc4cc(C#N)ccc4n2)CC1)O3
- ED50 (Rattus norvegicus [4]): > 30 mg/kg
- Activity (Rattus norvegicus [6]): Dose-dependent effect
- ED50 (Rattus norvegicus [6]; read-out: ID50 (the source's name)): 12.5 mg/kg
